Two compounds from ChEMBL document CHEMBL1155698, “Two new antimicrobial lysoplasmanylinositols from the marine sponge Theonella swinhoei” (2001) can be followed below.

Molecules are shown by their SMILES. Calls of active or inactive are those of the source. No cut-off for these calls is given here.

Assay [1] has as its system Escherichia coli. Briefly: Antimicrobial activity against Escherichia coli at 50 ug/disk. It counts as functional. To be noted: read-out: IZ.
Another assay relates to Umbelopsis ramanniana. Description: Antimicrobial activity against Mortierella ramanniana. It counts as functional, organism-based.
For assay [2], the system named is Escherichia coli. Briefly: Antimicrobial activity against Escherichia coli by […]. It counts as functional, organism-based.

For the compound `CCCCCCCC(C)CCCCCCCCOC[C@@H](O)COP(=O)(O)O[C@@H]1[C@@H](O)[C@H](O)[C@@H](O)[C@H](O)[C@@H]1O` (some centres undefined), the zone of inhibition at 50 µg/disc in the assay on Escherichia coli [1] turned out to be 12 mm. Moreover, the outcome with Umbelopsis ramanniana was inactive.
Turning to `CCCCCCC1C(C)C1CCCCCCCOC[C@@H](O)COP(=O)(O)O[C@@H]1[C@@H](O)[C@H](O)[C@@H](O)[C@H](O)[C@@H]1O` (some centres undefined), the outcome in the assay on Escherichia coli [2] was Active. Also, the result in the assay with Umbelopsis ramanniana was inactive.
